Measured values taken from patent US9095604B2, “Composition for preventing inflammations” (Meiji Co, Ltd., priority 2010, dated 2015).

Experiments:
[1] = test system: ulcerative colitis induced by dextran sodium sulfate (DSS); conditions: cited from earlier work
[2] = test system: aryl hydrocarbon receptor (AhR); assay: SEAP reporter assay in HeXS34 cells (pXRE-SEAP) for AhR-activating potency; type: cell-based, mouse; conditions: 10 μM αNF preincubated 30 minutes, then 10% v/v OLL1181 for 24 hours
Protocol: The HeXS34 cells prepared in (1) maintained in MEMα medium (Invitrogen, Carlsbad, Calif.) supplemented with 10% fetal bovine serum (FBS) were sown on a 96 well plate at 5000 cells/90 μL per well, and cultured for 24 hours in the presence of and in the absence of 10 μL (5×10^9 cells/mL) of a freeze-dried heat-sterilized lactic acid bacterium strain. […] Culture supernatants were subsequently subjected to an SEAP assay. The culture supernatant obtained in (2) was subjected to quantitative determination of SEAP by a chemiluminescence method using a Great EscAPe SEAP Chemiluminescence kit (Clontech). The assay was carried out three times, and the average value was determined using the luminescence intensity (LU) so obtained as the SEAP activity. […] In the same way as for Example 1, stimulation was carried out for 24 hours using heat-sterilized suspensions of the two types of lactic acid bacterium strains (5×10^9 cells/mL solution was added at 5% v/v and 10% v/v), and the culture supernatant was subjected to SEAP assay. […] (3).

[3] = test system: CYP1A1 expression in Caco2 cells; assay: CYP1A1 expression in Caco2 cells by quantitative real-time PCR; type: cell-based, human; conditions: 5 μM αNF preincubated 30 minutes
Protocol: Human Caco2 cells were cultured in DMEM medium (Invitrogen/Gibco, Carlsbad, Calif.) supplemented with 10% FBS and an antibiotic, a portion was preincubated with 5 μM αNF for 30 minutes, and both that which had been preincubated and that which had not been preincubated were subjected to stimulation with a 10% v/v heat-sterilized OLL1181 strain suspension for 4 hours.
The Caco2 cells obtained in (1) were subjected to quantitative real-time PCR. The quantitative real-time PCR was carried out using an ABI 7300 real-time PCR system (Applied Biosystems, Foster City, Calif.) in accordance with an instruction manual. With regard to a primer and a probe, those for human CYP1A1 (Assay ID: Hs02382618_s1) and those for glyceraldehyde-3-phosphate dehydrogenase (GAPDH) (Assay ID: Hs99999905_m1) (Applied Biosystems) were used. The level of CYP1A1 gene expression relative to the level of GAPDH gene expression was calculated and defined as the relative level of CYP1A1 gene expression.

[4] = test system: PGE2 secretion by Caco2 cells; assay: Prostaglandin E2 (PGE2) ELISA of Caco2 culture supernatant; type: cell-based; conditions: human Caco2 cells, αNF preincubation
[5] = DSS-treated mouse, compared with no TCDD

Effect on the OLL1181-induced increase of CYP1A1 expression [3] | Compound | Inflammation score [1, 5] | Production of inflammatory cytokines [1, 5] | Shortening of the intestinal tract [1, 5] | Weight loss [1, 5] | Inflammatory response of ulcerative colitis induced by DSS ([1]; mouse, in vivo) | Effect on the increase in SEAP activity caused by stimulation with the OLL1181 strain [2] | Effect on PGE2 production by stimulation with the OLL1181 strain [4]
– | Clc1cc2c(cc1Cl)Oc1cc(Cl)c(Cl)cc1O2 [TCDD, 2,3,7,8-tetrachlorodibenzo-p-dioxin] | significantly suppressed | significantly suppressed | significantly suppressed | significantly suppressed | suppresses | – | –
significantly suppressed | O=c1cc(-c2ccccc2)oc2c1ccc1ccccc12 [αNF, α-naphthoflavone] | – | – | – | – | – | significantly inhibited | inhibited
